This is an account of results in ChEMBL document CHEMBL1141894, “Synthesis and biological properties of novel sphingosine derivatives” (Bioorg Med Chem Lett, 2005).

Usually pIC50 stands for the IC50 on a negative log10 scale, so that one unit is a factor of ten.

pIC50: −log10 of the molar value.

The test system of the test is HL-60. The test can be described thus: Inhibitory concentration against [Ca2+] ion increase in HL60 cell induced by natural sphingosine-1-phosphate. The test is classed as functional, cell-based. As to conditions: Homo sapiens.
Consider `N[C@@H](COP(=O)(O)O)[C@@H](O)/C=C/c1ccccc1`, for which the pIC50 is 7.43.

On to `CSc1ccc([C@H](O)[C@@H](N)COP(=O)(O)O)cc1`, for which the pIC50 is 7.82.

Molecule `CCCCCCCCCC/C=C/[C@H](O)[C@@H](N)COP(=O)(O)O` had a pIC50 of 7.82.

On to `N[C@@H](CBr)[C@@H](O)c1ccccc1`, for which the pIC50 is 7.15.

Take `CSc1ccc([C@H](O)[C@@H](N)CBr)cc1`: the pIC50 was 7.74.

`N[C@@H](COP(=O)(O)O)[C@@H](O)c1ccccc1`: the pIC50 is 6.75.

Molecule `CCCCCCCCCCCCC/C=C/[C@H](O)[C@@H](N)COP(=O)(O)O` gave a pIC50 of 7.51. Against the preceding molecule, the pIC50 is 0.76 log units higher.

On to `N[C@@H](COP(=O)(O)O)[C@@H](O)c1ccc([N+](=O)[O-])cc1`, for which the pIC50 was 7.25.
